From patent US20230181905A1, “Systems, Devices, and Methods for Enhancing the Neuroprotective Effects of Non-Invasive Gamma Stimulation with Pharmacological Agents” (Massachusetts Institute of Technology, priority 2021, published 2023)

Test system: amyloid
Experiment: Amyloid immunohistochemistry in APP.PS1 mice
Assay type: in vivo, mouse
Details: 11-month-old APP.PS1 mice
Method: 11-month-old APP.PS1 mice were either a) untreated as control, b) treated with GENUS alone (40 Hz light flicker delivered for 1 hour/day for 30 days), or c) a combination of GENUS (40 Hz delivered for 1 hour/day for 30 days) and levetiracetam (10 mg/kg body weight, intraperitoneal injection daily for 30 days), an agent shown to offer benefits in AD model mice. After the treatment mice were transcardially perfused with ice cold phosphate buffered saline (PBS) followed by 4% paraformaldehyde in PBS. Forty micron brain slices were prepared, and immunohistochemistry was then performed to evaluate the amyloid levels.

In the case of `CC[C@@H](C(N)=O)N1CCCC1=O` [levetiracetam], the “amyloid levels in the visual cortex relative to treatment with GENUS alone” value (levetiracetam 10 mg/kg i.p. daily 30 days co-administered with GENUS) was “higher” and the “effect of GENUS on amyloid levels” value (levetiracetam 10 mg/kg i.p. daily 30 days co-administered with GENUS 1 hour/day) was “dampened or attenuated”.
